Calls of active or inactive are those of the source.
How the values were obtained:
Protein skinhead-1 = target: T1, Protein skinhead-1 (Caenorhabditis elegans, UniProt P34707); type: functional
T1 sequence (P34707 whole entry): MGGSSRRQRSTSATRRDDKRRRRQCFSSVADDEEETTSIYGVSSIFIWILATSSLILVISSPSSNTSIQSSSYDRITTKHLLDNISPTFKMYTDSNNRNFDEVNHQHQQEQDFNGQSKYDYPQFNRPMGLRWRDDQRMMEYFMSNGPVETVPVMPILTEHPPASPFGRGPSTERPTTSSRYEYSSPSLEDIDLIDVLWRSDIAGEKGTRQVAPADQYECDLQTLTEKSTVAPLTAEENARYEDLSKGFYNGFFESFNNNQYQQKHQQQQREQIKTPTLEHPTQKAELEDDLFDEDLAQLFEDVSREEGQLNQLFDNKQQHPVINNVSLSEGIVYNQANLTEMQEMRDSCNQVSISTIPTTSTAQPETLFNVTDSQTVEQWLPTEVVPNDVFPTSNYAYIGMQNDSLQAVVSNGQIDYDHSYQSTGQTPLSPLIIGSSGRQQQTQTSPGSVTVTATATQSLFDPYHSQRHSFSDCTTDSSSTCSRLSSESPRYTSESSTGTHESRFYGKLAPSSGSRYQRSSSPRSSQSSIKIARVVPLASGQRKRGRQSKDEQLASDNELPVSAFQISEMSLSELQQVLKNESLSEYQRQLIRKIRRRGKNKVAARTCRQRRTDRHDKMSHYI

[1] = target: T2, High affinity choline transporter 1 (Homo sapiens, UniProt Q9GZV3); assay: CHT inhibitors, dose response, cell-based, 5-point CRC, membrane potential dye (AID 504840); type: functional
T2 sequence (Q9GZV3 whole entry): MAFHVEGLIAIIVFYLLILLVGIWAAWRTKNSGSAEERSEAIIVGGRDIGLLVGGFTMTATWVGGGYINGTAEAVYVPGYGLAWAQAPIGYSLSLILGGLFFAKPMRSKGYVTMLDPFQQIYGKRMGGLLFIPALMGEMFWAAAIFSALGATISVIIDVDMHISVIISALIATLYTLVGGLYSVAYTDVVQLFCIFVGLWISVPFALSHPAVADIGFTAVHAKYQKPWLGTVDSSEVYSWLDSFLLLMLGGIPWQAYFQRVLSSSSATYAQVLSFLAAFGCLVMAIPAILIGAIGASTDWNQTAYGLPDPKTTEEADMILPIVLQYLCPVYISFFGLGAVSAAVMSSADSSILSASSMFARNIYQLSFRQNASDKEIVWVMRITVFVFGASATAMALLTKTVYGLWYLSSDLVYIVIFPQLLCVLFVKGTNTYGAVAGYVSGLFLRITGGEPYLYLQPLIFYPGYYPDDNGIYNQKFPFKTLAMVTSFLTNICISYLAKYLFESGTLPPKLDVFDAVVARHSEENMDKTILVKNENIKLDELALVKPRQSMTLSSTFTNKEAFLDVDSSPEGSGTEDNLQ

[2] = inhibitors of intracellular T. cruzi replication, confirmation, NIH3T3 host cells, beta-gal luminescence (AID 2044); type: functional, cell-based;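 note: intracellular parasites grown in NIH/3T3 mouse fibroblasts as host cells; luminescent beta-galactosidase reporter signal from transgenic T. cruzi replicating inside host cells; inhibitors lower the luminescence signal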
[3] = target: T3, DNA repair protein RAD52 homolog (Homo sapiens, UniProt P43351); type: functional, biochemical
T3 sequence (P43351 whole entry): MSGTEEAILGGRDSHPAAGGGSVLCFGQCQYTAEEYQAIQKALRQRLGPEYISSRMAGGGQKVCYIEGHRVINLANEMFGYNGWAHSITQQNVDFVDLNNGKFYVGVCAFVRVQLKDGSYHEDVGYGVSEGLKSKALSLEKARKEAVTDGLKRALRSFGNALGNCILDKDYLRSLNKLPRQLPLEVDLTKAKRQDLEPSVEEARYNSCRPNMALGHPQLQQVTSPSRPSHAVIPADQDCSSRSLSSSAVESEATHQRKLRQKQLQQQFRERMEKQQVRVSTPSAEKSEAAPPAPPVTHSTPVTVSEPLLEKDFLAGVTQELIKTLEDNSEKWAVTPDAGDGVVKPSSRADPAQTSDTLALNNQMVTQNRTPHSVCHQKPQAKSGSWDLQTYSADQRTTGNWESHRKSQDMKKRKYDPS

[4] = target: T4, DNA repair and recombination protein RAD54-like (Homo sapiens, UniProt Q92698); assay: inhibitors of human RAD54 branch migration, confirmation, biochemical, fluorescence, cherry-picked samples, dose series (AID 651657); type: functional
T4 sequence (Q92698 whole entry): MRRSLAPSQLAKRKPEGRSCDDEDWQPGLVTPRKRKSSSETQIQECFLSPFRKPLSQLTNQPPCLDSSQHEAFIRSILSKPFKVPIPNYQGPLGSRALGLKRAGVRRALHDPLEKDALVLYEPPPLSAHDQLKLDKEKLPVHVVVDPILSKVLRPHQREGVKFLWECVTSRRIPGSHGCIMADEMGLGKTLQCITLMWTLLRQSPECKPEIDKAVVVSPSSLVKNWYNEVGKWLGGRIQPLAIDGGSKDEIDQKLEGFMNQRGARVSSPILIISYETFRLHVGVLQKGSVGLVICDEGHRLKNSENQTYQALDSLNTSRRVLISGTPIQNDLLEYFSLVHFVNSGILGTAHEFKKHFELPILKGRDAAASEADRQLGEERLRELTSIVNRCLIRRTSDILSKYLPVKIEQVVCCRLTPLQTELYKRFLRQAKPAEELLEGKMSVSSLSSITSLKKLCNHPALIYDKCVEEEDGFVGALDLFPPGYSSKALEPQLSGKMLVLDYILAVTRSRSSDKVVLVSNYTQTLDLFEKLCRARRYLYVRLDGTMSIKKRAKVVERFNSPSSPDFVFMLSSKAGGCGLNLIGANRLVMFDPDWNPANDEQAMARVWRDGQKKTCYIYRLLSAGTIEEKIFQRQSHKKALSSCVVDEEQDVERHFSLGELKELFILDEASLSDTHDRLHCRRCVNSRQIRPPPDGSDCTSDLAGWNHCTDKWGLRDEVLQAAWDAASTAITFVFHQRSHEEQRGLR

[5] = cytotoxicity toward NIH3T3 fibroblasts, dose response, counter-screen, cell-based, ATP luminescence, mouse fibroblasts (AID 2010); type: functional;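 note: cells exposed to compound for about 90 hours before reading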
[6] = Fluorescence-based cell-based high throughput dose response assay for inhibitors of the interaction of nucleotide-binding oligomerization domain containing 2 (NOD2) and the receptor-interacting serine-threonine kinase 2 (RIPK2).; type: functional; details: Homo sapiens
[7] = microbe, parasite or virus in culture; type: functional; details: Mycobacterium tuberculosis
Paired box protein Pax-8 = Paired box protein Pax-8 (Homo sapiens, UniProt Q06710); assay: inhibitors of PAX8-driven TPO luciferase reporter, dose response, RMG-I cells, cherry-pick (AID 687027); type: functional, cell-based;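 note: luciferase reporter driven by Pax8 target thyroperoxidase promoter measured by SteadyGlo luminescence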
Paired box protein Pax-8, sequence (Q06710 whole entry): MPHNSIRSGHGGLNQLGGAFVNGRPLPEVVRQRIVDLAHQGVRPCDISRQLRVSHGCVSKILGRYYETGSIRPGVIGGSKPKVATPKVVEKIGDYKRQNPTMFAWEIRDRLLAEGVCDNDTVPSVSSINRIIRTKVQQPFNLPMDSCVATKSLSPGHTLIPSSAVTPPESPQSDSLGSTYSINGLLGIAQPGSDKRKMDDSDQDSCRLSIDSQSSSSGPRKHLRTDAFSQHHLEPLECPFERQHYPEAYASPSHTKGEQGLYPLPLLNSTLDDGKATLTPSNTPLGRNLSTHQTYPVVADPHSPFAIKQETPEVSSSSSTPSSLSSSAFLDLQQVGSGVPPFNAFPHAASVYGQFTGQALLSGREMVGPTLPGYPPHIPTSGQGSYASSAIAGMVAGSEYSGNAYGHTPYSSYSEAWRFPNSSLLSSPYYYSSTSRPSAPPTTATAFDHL

[8] = Luminescence Cell-Based Dose Retest to Confirm Inhibitors of Cancer Stem Cells. [Related pubchem assays (depositor defined):AID2717, AID2721]; type: functional; details: Homo sapiens
cells [9] = type: functional, cell-based
[10] = target: T5, Short transient receptor potential channel 4 (Mus musculus, UniProt Q9QUQ5); assay: mouse TRPC4 channel inhibitors, dose response, cell-based, HEK293 TRPC4/mu-opioid, Fluo-4 calcium (AID 434942); type: functional;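 note: potency of inhibitors blocking the TRPC4 calcium response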
T5 sequence (Q9QUQ5 whole entry): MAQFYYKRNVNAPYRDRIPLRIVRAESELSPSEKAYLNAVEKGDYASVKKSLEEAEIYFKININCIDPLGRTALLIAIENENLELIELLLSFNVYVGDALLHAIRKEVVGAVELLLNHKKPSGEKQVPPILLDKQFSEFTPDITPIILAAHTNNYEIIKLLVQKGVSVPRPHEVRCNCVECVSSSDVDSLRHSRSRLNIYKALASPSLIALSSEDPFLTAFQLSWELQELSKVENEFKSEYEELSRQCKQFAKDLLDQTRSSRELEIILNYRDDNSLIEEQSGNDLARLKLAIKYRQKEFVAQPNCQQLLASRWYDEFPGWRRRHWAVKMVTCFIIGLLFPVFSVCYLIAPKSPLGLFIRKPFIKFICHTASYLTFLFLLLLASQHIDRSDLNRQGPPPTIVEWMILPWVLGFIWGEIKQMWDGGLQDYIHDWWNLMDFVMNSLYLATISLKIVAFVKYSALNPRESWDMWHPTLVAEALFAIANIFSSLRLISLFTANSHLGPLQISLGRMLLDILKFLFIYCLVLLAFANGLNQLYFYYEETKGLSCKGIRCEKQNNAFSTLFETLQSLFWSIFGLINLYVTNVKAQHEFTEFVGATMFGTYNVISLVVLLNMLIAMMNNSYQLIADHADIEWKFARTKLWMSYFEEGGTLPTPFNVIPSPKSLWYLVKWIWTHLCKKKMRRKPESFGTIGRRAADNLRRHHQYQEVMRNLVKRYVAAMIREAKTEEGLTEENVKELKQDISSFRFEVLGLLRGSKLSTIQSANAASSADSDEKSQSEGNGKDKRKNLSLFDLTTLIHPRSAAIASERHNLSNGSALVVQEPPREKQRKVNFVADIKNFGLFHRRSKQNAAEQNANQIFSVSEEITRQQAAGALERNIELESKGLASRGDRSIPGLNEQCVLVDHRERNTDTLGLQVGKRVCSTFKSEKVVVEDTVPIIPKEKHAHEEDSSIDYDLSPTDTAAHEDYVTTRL

INS1 = assay: beta cell apoptosis inhibitors, cytokine rescue, dose response, luminescence, retest (AID 449756); type: functional, cell-based; details: Rattus norvegicus;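 note: cell death triggered by IL-1 beta plus TNF-alpha plus IFN-gamma mixture; protective hits raise ATP signal compared with cytokine alone wells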
cells [11] = type: functional, cell-based; remark: listed apart in the source
[12] = target: Glucose-6-phosphate 1-dehydrogenase (Homo sapiens, UniProt P11413); assay: human G6PD enzyme inhibitors, dose response, selectivity assay for P. falciparum G6PD inhibitor project, biochemical, fluorescence (AID 504792); type: functional
Glucose-6-phosphate 1-dehydrogenase, sequence (P11413 whole entry): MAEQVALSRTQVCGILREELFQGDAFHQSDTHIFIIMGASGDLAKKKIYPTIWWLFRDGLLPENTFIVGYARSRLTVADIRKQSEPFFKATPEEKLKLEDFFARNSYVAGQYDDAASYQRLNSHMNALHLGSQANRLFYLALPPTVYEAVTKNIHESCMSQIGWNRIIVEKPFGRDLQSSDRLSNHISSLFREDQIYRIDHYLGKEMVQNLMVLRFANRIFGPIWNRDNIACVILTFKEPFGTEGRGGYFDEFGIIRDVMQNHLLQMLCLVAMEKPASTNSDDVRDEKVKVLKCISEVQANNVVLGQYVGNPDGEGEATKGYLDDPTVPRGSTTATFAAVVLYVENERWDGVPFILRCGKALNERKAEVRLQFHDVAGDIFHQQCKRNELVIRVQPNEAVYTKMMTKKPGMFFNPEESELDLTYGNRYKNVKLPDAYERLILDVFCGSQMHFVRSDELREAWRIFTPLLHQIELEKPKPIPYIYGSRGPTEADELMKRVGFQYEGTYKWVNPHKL

[13] = HeLa cell cytotoxicity, dose response, cytotoxicity control for MgcRacGAP inhibitor project (AID 624300); type: functional
Hexokinase = target: T6, Hexokinase (Trypanosoma brucei, UniProt Q38C41); assay: Confirmation assay for inhibitors of Trypanosoma brucei hexokinase 1-Analogue-first series. [Related pubchem assays (depositor defined):AID1430, AID1632, AID2516, AID2560, AID2579, AID2600, AID449725, AID492951]; type: functional
T6 sequence (Q38C41 whole entry): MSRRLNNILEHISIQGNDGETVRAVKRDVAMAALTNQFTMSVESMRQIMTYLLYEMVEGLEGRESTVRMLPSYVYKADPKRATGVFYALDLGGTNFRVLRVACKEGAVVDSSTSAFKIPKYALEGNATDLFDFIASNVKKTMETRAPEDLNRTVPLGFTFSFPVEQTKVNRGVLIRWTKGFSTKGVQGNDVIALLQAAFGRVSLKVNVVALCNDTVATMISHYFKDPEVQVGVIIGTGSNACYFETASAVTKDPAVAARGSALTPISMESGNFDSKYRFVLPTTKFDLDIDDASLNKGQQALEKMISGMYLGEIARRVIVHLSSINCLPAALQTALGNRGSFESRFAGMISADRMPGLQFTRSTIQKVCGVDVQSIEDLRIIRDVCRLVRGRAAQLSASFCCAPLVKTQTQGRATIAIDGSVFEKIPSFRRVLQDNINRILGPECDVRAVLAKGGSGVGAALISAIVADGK

[14] = target: T7, Rac GTPase-activating protein 1 (Homo sapiens, UniProt Q9H0H5); assay: MgcRacGAP GTPase-activating activity inhibitors, confirmation, biochemical, ADP Hunter fluorescence, primary and confirmatory (AID 624330); type: functional
T7 sequence (Q9H0H5 whole entry): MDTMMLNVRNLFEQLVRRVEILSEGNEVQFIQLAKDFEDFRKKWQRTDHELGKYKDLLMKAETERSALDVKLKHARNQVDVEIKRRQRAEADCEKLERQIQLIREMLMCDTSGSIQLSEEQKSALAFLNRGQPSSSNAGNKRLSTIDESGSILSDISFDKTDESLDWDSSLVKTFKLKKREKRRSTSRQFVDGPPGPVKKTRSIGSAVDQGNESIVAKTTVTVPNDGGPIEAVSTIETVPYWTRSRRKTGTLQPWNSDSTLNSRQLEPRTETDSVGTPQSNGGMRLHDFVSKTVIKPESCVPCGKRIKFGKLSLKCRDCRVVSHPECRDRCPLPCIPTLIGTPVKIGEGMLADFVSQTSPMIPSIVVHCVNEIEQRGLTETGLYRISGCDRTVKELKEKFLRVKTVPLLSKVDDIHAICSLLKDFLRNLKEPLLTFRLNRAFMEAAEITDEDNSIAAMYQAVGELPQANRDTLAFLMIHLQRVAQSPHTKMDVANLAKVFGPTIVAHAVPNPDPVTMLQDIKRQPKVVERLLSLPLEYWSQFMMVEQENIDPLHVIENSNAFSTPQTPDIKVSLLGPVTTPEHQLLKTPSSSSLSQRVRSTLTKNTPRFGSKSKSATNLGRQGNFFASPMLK

| Structure (SMILES) | EC50 [2] | AC50 [3] | AC50 [4] | EC50 [5] | CC50 [13] | IC50 [14] | other results |
| --- | --- | --- | --- | --- | --- | --- | --- |
| CCN1CCN(c2cc(C)c3cc(NC(=S)N4CCCCC4)ccc3n2)CC1 | 2.28 µM (active) | 14.1 µM (active) | 100 µM (inactive) | > 60 µM (not active) |  |  | IC50 (Protein skinhead-1): > 100 µM (inactive); IC50 [1]: 12.6 µM (active) |
| CN1CCN(c2ccc(S(=O)(=O)N3CCCCC3)cc2NC(=O)/C=C/c2ccc(Cl)c([N+](=O)[O-])c2)CC1 | 1.85 µM (active) |  |  | > 60 µM (not active) |  |  | IC50 [6]: 6.18 µM (active); CC50 [7]: 23.3 µM (active); AC50 (Paired box protein Pax-8): 12.6 µM (active); AC50 [8]: 5.48 µM (active) |
| c1ccc(CNc2c3ccccc3nc3ccccc23)cc1 | 0.931 µM (active) | 12.1 µM (active) | 5.21 µM (active) | 8.87 µM (active) |  |  | EC50 (cells [9]): > 350 µM (not active); EC50 [10]: 1.33 µM (active); AC50 (INS1): 3.79 µM (active); EC50 (cells [11]): > 350 µM (not active) |
| O=c1c2ccccc2sn1-c1ccccc1F |  |  |  |  | 72.2 µM (active) | 41 µM (active) | IC50 [12]: 17.8 µM (active); IC50 (Hexokinase): 2.26 µM (active) |
| Cc1cc(-c2ccccc2)nc(N/N=C/c2ccc(N(C)C)cc2)n1 |  |  |  |  | 100 µM (active) | 74.7 µM (active) |  |
